Results taken from US6737383B1, “Herbicidal oxadiazolidines” (priority 1999, dated 2004).

Experiments:
rape = assay: Test B pre/postemergence rape; assay type: in vivo, Brassica napus
In short: (§1)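 Response is a visual 0-to-10 score relative to untreated plants, where 0 means no effect and 10 means complete control, taken twelve to sixteen days after application. Treatments went onto soil at planting and onto foliage of 1- to 4-leaf plants, using a surfactant-containing non-phytotoxic solvent.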

cocklebur = assay: Test B pre/postemergence cocklebur; assay type: in vivo, Xanthium strumarium
In short: as §1

corn = assay: Test B pre/postemergence corn; assay type: in vivo, Zea mays
In short: as §1

morningglory = assay: Test B pre/postemergence morningglory; assay type: in vivo, Ipomoea hederacea
In short: as §1

soybean = assay: Test B pre/postemergence soybean; assay type: in vivo, Glycine max
In short: as §1

pigweed = assay: Test B pre/postemergence pigweed; assay type: in vivo, Amaranthus retroflexus
In short: as §1

velvetleaf = assay: Test B pre/postemergence velvetleaf; assay type: in vivo, Abutilon theophrasti
In short: as §1

giant foxtail = assay: Test B pre/postemergence giant foxtail; assay type: in vivo, Setaria faberii
In short: as §1

bedstraw = assay: Test B pre/postemergence bedstraw; assay type: in vivo, Galium aparine; conditions: for Bedstraw plant response rating: 10 is complete control
In short: as §1

blackgrass = assay: Test B pre/postemergence blackgrass; assay type: in vivo, Alopecurus myosuroides
In short: as §1

sugar beet = assay: Test B pre/postemergence sugar beet; assay type: in vivo, Beta vulgaris
In short: as §1

wild oat = assay: Test B pre/postemergence wild oat; assay type: in vivo, Avena fatua
In short: as §1

surinam grass = assay: Test B pre/postemergence surinam grass; assay type: in vivo, Brachiaria decumbens
In short: as §1

wheat = assay: Test B pre/postemergence wheat; assay type: in vivo, Triticum aestivum
In short: as §1

purple nutsedge = assay: Test B pre/postemergence purple nutsedge; assay type: in vivo, Cyperus rotundus
In short: as §1

crabgrass = assay: Test B pre/postemergence crabgrass; assay type: in vivo, Digitaria sanguinalis
In short: as §1

[1] = Postemergence, Rate 62 g/ha, scale of 0 to 10, 0 is no effect, 10 is complete control
[2] = Postemergence, Rate 125 g/ha, scale 0 to 10, 0 is no effect, 10 is complete control
[3] = Postemergence, Rate 500 g/ha, scale 0 to 10, 0 is no effect, 10 is complete control
[4] = Preemergence, Rate 62 g/ha, scale of 0 to 10 where 0 is no effect and 10 is complete control
[5] = Preemergence, Rate 125 g/ha, scale 0 to 10, 0 is no effect, 10 is complete control
[6] = Preemergence, Rate 500 g/ha, scale of 0 to 10 where 0 is no effect and 10 is complete control
[7] = Postemergence, Rate 250 g/ha, scale 0 to 10
[8] = Preemergence, Rate 250 g/ha, scale 0 to 10, 0 is no effect, 10 is complete control

CC(C)=CCn1c(=O)on(C(=O)N(c2ccc(F)cc2F)C(C)C)c1=O [Compound 515]
Rape plant response rating (rape; [1]): 4 | Rape plant response rating (rape; [2]): 4 | Plant response rating, Rape (rape; [3]): 6 | Plant response rating, Rape (rape; [4]): 0 | Rape plant response rating (rape; [5]): 4 | Rape plant response rating (rape; [6]): 10 | Cocklebur plant response rating (cocklebur; [1]): 0 | Cocklebur plant response rating (cocklebur; [2]): 3 | Cocklebur plant response rating (cocklebur; [7]): 3 | Plant response rating, Cocklebur (cocklebur; [3]): 5 | Plant response rating, Cocklebur (cocklebur; [4]): 0 | Cocklebur plant response rating (cocklebur; [5]): 0 | Cocklebur plant response rating (cocklebur; [8]): 0 | Cocklebur plant response rating (cocklebur; [6]): 0 | Corn plant response rating (corn; [1]): 0 | Corn plant response rating (corn; [2]): 0 | Corn plant response rating (corn; [7]): 0 | Plant response rating, Corn (corn; [3]): 0 | Plant response rating, Corn (corn; [4]): 0 | Corn plant response rating (corn; [5]): 0 | Corn plant response rating (corn; [6]): 5 | Morningglory plant response rating (morningglory; [1]): 2 | Morningglory plant response rating (morningglory; [2]): 2 | Plant response rating, Morningglory (morningglory; [3]): 6 | Plant response rating, Morningglory (morningglory; [4]): 0 | Morningglory plant response rating (morningglory; [5]): 0 | Morningglory plant response rating (morningglory; [6]): 0 | Soybean plant response rating (soybean; [1]): 4 | Soybean plant response rating (soybean; [2]): 4 | Plant response rating, Soybean (soybean; [3]): 7 | Plant response rating, Soybean (soybean; [4]): 0 | Soybean plant response rating (soybean; [5]): 0 | Soybean plant response rating (soybean; [6]): 0 | Redroot pigweed plant response rating (pigweed; [1]): 3 | Redroot pigweed plant response rating (pigweed; [2]): 4 | Plant response rating, Redroot pigweed (pigweed; [3]): 5 | Plant response rating, Redroot pigweed (pigweed; [4]): 8 | Redroot pigweed plant response rating (pigweed; [5]): 9 | Redroot pigweed plant response rating (pigweed; [6]): 10 | Velvetleaf plant response rating (velvetleaf; [1]): 2 | Velvetleaf plant response rating (velvetleaf; [2]): 4 | Plant response rating, Velvetleaf (velvetleaf; [3]): 8 | Plant response rating, Velvetleaf (velvetleaf; [4]): 0 | Velvetleaf plant response rating (velvetleaf; [5]): 0 | Velvetleaf plant response rating (velvetleaf; [6]): 6 | Giant foxtail plant response rating (giant foxtail; [1]): 8 | Giant foxtail plant response rating (giant foxtail; [2]): 9 | Plant response rating, Giant foxtail (giant foxtail; [3]): 9 | Plant response rating, Giant foxtail (giant foxtail; [4]): 10 | Giant foxtail plant response rating (giant foxtail; [5]): 10 | Giant foxtail plant response rating (giant foxtail; [6]): 10 | Bedstraw plant response rating (bedstraw; Postemergence, Rate 62 g/ha, scale of 0 to 10, 0 is no effect): 6 | Bedstraw plant response rating (bedstraw; Postemergence, Rate 125 g/ha, scale 0 to 10, 0 is no effect): 6 | Plant response rating, Bedstraw (bedstraw; [4]): 0 | Bedstraw plant response rating (bedstraw; Preemergence, Rate 125 g/ha, scale 0 to 10, 0 is no effect): 0 | Bedstraw plant response rating (bedstraw; Preemergence, Rate 250 g/ha, scale 0 to 10, 0 is no effect): 0 | Bedstraw plant response rating (bedstraw; Preemergence, Rate 500 g/ha, scale 0 to 10, 0 is no effect): 3 | Blackgrass plant response rating (blackgrass; [1]): 0 | Blackgrass plant response rating (blackgrass; [2]): 0 | Blackgrass plant response rating (blackgrass; [7]): 0 | Plant response rating, Blackgrass (blackgrass; [3]): 1 | Plant response rating, Blackgrass (blackgrass; [4]): 3 | Blackgrass plant response rating (blackgrass; [5]): 5 | Blackgrass plant response rating (blackgrass; [8]): 5 | Blackgrass plant response rating (blackgrass; [6]): 8 | Sugarbeets plant response rating (sugar beet; [1]): 3 | Sugarbeets plant response rating (sugar beet; [2]): 3 | Plant response rating, Sugarbeets (sugar beet; [3]): 3 | Plant response rating, Sugarbeets (sugar beet; [4]): 0 | Sugarbeets plant response rating (sugar beet; [5]): 4 | Sugarbeets plant response rating (sugar beet; [6]): 7 | Wild oats plant response rating (wild oat; [1]): 0 | Wild oats plant response rating (wild oat; [2]): 0 | Plant response rating, Wild oats (wild oat; [3]): 0 | Plant response rating, Wild oats (wild oat; [4]): 3 | Wild oats plant response rating (wild oat; [5]): 5 | Wild oats plant response rating (wild oat; [6]): 9 | B. signalgrass plant response rating (surinam grass; [1]): 0 | B. signalgrass plant response rating (surinam grass; [2]): 0 | B. signalgrass plant response rating (surinam grass; Postemergence, Rate 250 g/ha, scale 0 to 10, 0 no effect, 10 complete control): 0 | Plant response rating, B. signalgrass (surinam grass; [3]): 3 | Plant response rating, B. signalgrass (surinam grass; [4]): 2 | B. signalgrass plant response rating (surinam grass; [5]): 8 | B. signalgrass plant response rating (surinam grass; [8]): 8 | B. signalgrass plant response rating (surinam grass; Preemergence, Rate 500 g/ha, scale 0 to 10, 0 is no effect, 10 is complete control): 9 | Wheat plant response rating (wheat; [1]): 0 | Wheat plant response rating (wheat; [2]): 0 | Plant response rating, Wheat (wheat; [3]): 0 | Plant response rating, Wheat (wheat; [4]): 0 | Wheat plant response rating (wheat; [5]): 0 | Wheat plant response rating (wheat; [6]): 7 | Nutsedge plant response rating (purple nutsedge; [1]): 0 | Nutsedge plant response rating (purple nutsedge; [2]): 0 | Plant response rating, Nutsedge (purple nutsedge; [3]): 0 | Plant response rating, Nutsedge (purple nutsedge; [4]): 0 | Nutsedge plant response rating (purple nutsedge; [5]): 0 | Nutsedge plant response rating (purple nutsedge; [6]): 0 | Crabgrass plant response rating (crabgrass; [1]): 4 | Crabgrass plant response rating (crabgrass; [2]): 8 | Crabgrass plant response rating (crabgrass; [7]): 9 | Plant response rating, Crabgrass (crabgrass; [3]): 9 | Plant response rating, Crabgrass (crabgrass; [4]): 6 | Crabgrass plant response rating (crabgrass; [5]): 7 | Crabgrass plant response rating (crabgrass; [6]): 9
